We go through 22 molecules from patent publication US6500431B1, “Inhibitors of angiogenesis and tumor growth” (University of Southern California, priority 1998, dated 2002).

No end group written: not given here.

Broadly, the IC50 is the concentration that gives 50% inhibition.

Common to all, as to assay type: cell-based
For one test, the system named is KS Y-1 cells. As to the kind of experiment: KS Y-1 cell proliferation assay (MTT). The settings on record: for Cell Proliferation Activity (% of control), KSY-1: concentration not printed; for Cell Proliferation Activity (% of control), KSY-1 / KS Cell Proliferation, % of Control: 5 days, MTT; for KS Cell Proliferation, % of Control: 7,500 KS Y-1 cells/well. As for the experimental part:
(§1) To determine if Saposin B polypeptides had anti-angiogenic activity, a series of overlapping polypeptides were synthesized and tested in the KS Y-1 cell proliferation assay. The overlapping polypeptides are SEQ ID NOS:13 though 42. Cell Proliferation assays in either KS cells or fibroblast. Cells were plated in 48 well plates at equal numbers in appropriate culture medium. Cells were treated with the test compounds at various concentrations on day one, and on day 3. MTT was done on day 5. KS cells were used to represent the activated endothelial cells, while fibroblast cells represent the control cells. The results are remarkable for the lack of toxicity to the fibroblast relative to the activated endothelial cells/KS cells.

The subject of a further test is T1 cells. As to the kind of experiment: Fibroblast proliferation assay (MTT). The note with it: for Cell Proliferation Activity (% of control), T1: concentration not given, 5 days; for Fibroblast Proliferation, % of Control: 5000 T1 cells/well, 7 days. As for the experimental part: as §1, with “MTT was done on day 5.” left out
Test [1] deals with endothelial cells (HUVEC). Nature of the test: Growth inhibition of endothelial cells. The settings on record: for activity against endothelial cells: Saposin C: highest concentration tested 50 μg/mL. As for the experimental part: FIG. 1D: Activity of n-terminus decapeptide (DVCQDCIQMV; SEQ ID NO 21).
FIG. 1E: Activity of N-terminus pentapeptide (DVCQC; SEQ ID NO: 28).
(§2) By SDS-PAGE, the bacterial product was smaller than the eukaryotic protein. Because prokaryotically expressed proteins are not glycosylated, the difference in molecular weights probably represents the presence of carbohydrate in the eukaryotic protein. Recombinant proteins were then tested in KS, endothelial and control cell lines. Activity was found only in KS cell lines and endothelial cells.

In the next test the test system is KS cell lines. Nature of the test: Activity of recombinant Prosaposin chains on growth of KS cell lines. The settings on record: Saposin C: highest concentration tested 50 μg/mL.
Source text: In order to determine whether recombinant Saposin B has anti-angiogenic activity, the coding region of each of the Prosaposin chains was amplified from fibroblast cell lines and cloned into both bacterial (pGEX-KG) and eukaryotic (pcDNA 3.1His A) expression vectors.
The PCR products were digested with the respective restriction enzymes and the restriction products were inserted into the pGEX-KG vector for bacterial expression. pGEX-KG vector comprises a glutathione S transferase (GST)-tag at the […] of the insertion site so that a GST-fusion protein is expressed. The GST-tag is used to aid in purification of the recombinant protein. After elution from a glutathione-Sepharose 4B column, the GST-tagged proteins were incubated with thrombin (4 μg/ml) for 4 hr at room temperature (22-25° C.) in 50 mM Tris, pH 8.3, 3 mM CaCl2, 150 mM NaCl to cleave GST from the fusion protein. Free GST was removed from the preparation by passing the digested fusion protein through the glutathione-Sepharose 4B column.
as §2

[2] abbreviates: first of two KSY-1 value columns.
[3] abbreviates: second of two KSY-1 value columns.

Turning to CQDCIQMV [SEQ ID NO:30], the “Cell Proliferation Activity (% of control), KSY-1” value is 77 % of control in the test with KS Y-1 cells (setting [2]) and 35 % of control with KS Y-1 cells (setting [3]). Also, the entries for the “Cell Proliferation Activity (% of control), T1” value in the test with T1 cells and with T1 cells (first of two T1 value columns) were 84 % of control and 92 % of control, respectively.
Regarding DCIQMV [SEQ ID NO:23], the “KS Cell Proliferation, % of Control” value in the test with KS Y-1 cells (1 μg/mL) is on record as 88.7 % of Control; in the test with KS Y-1 cells (5 μg/mL) it was 83.5 % of Control; with KS Y-1 cells (10 μg/ml) it was 68.7 % of Control; with KS Y-1 cells (50 μg/mL), 51.3 % of Control. Further, the “Cell Proliferation Activity (% of control), KSY-1” value in the test with KS Y-1 cells (setting [2]) is reported as 68 % of control; in the test on KS Y-1 cells (setting [3]), 51 % of control.
As for DVCQDC [SEQ ID NO:27], the results for the “Cell Proliferation Activity (% of control), KSY-1” value in the test with KS Y-1 cells (setting [2]) and in the test on KS Y-1 cells (setting [3]) were 60 % of control and 22 % of control, respectively. Besides, the results for the “Cell Proliferation Activity (% of control), T1” value with T1 cells and in the test on T1 cells (first of two T1 value columns) were 75 % of control and 88 % of control, respectively.
The corresponding values for DVCQDCI [SEQ ID NO:26] are 72 % of control, 40 % of control, 81 % of control and 96 % of control.
On to DVCQDCIQ [SEQ ID NO:25], for which the figures for the “Cell Proliferation Activity (% of control), KSY-1” value in the test on KS Y-1 cells (setting [2]) and in the test with KS Y-1 cells (setting [3]) were 72 % of control and 39 % of control, respectively. The “Cell Proliferation Activity (% of control), T1” value is on record as 89 % of control in the test on T1 cells and 98 % of control with T1 cells (first of two T1 value columns).
With DVCQDCIQM [SEQ ID NO:24], the “Cell Proliferation Activity (% of control), KSY-1” value is 68 % of control in the test with KS Y-1 cells (setting [2]) and 46 % of control in the test with KS Y-1 cells (setting [3]). Also, the “Cell Proliferation Activity (% of control), T1” value in the test on T1 cells is reported as 84 % of control; in the test with T1 cells (first of two T1 value columns) it was 96 % of control.
DVCQDCIQMV [SEQ ID NO:21]: in test [1] (FIG. 1, 1D, 1E), the “growth inhibition of endothelial cells” value is “Only endothelial cells show dose dependent growth inhibition”. Further, the “KS Cell Proliferation, % of Control” value in the test with KS Y-1 cells (1 μg/mL) is on record as 88.7 % of Control; in the test on KS Y-1 cells (5 μg/mL), 68.7 % of Control; in the test with KS Y-1 cells (10 μg/ml), 26.1 % of Control; in the test with KS Y-1 cells (50 μg/mL), 7.0 % of Control. In addition, in the test with KS Y-1 cells (setting [2]), the “Cell Proliferation Activity (% of control), KSY-1” value is 29 % of control. Further, the “Fibroblast Proliferation, % of Control” value in the test on T1 cells (1 μg/mL) is 100.0 % of Control; in the test with T1 cells (10 μg/mL), 91.3 % of Control; in the test with T1 cells (50 μg/mL) it was 87.0 % of Control.
Take GDVCQ [SEQ ID NO:22]: the “KS Cell Proliferation, % of Control” value in the test with KS Y-1 cells (1 μg/mL) is listed as 158.3 % of Control; in the test with KS Y-1 cells (5 μg/mL), 77.4 % of Control; with KS Y-1 cells (10 μg/ml) it was 59.1 % of Control; with KS Y-1 cells (50 μg/mL), 37.4 % of Control. For the same molecule, the “Cell Proliferation Activity (% of control), KSY-1” value was 59 % of control with KS Y-1 cells (setting [2]) and 28 % of control in the test with KS Y-1 cells (setting [3]). The “Fibroblast Proliferation, % of Control” value in the test on T1 cells (1 μg/mL) was 95.7 % of Control; in the test on T1 cells (10 μg/mL), 95.7 % of Control; in the test on T1 cells (50 μg/mL), 87.0 % of Control.
Take GDVCQDSIQMV [SEQ ID NO:33, GDVCQDSIQMV]: in the test with KS Y-1 cells, the 50% inhibitory concentration (IC50) came to 7.8 µM.
Consider GDVSQDCIQMV [SEQ ID NO:32, GDVSQDCIQMV], for which inhibition in the test with KS Y-1 cells was half-maximal at 18 µM (IC50).
GDVSQDSIQMV [SEQ ID NO:20]: the “KS Cell Proliferation, % of Control” value in the test with KS Y-1 cells (1 μg/mL) is recorded as 100.0 % of Control; with KS Y-1 cells (5 μg/mL), 96.4 % of Control; in the test with KS Y-1 cells (10 μg/ml), 92.9 % of Control; with KS Y-1 cells (50 μg/mL), 82.1 % of Control. Moreover, the “Cell Proliferation Activity (% of control), KSY-1” value in the test on KS Y-1 cells (setting [2]) is on record as 93 % of control; in the test on KS Y-1 cells (setting [3]), 84 % of control. In addition, the “Fibroblast Proliferation, % of Control” value in the test on T1 cells (1 μg/mL) is 91.3 % of Control; with T1 cells (10 μg/mL), 95.7 % of Control; in the test on T1 cells (50 μg/mL), 95.7 % of Control.
For the molecule IQMVTDIQTAVRTNSTF [SEQ ID NO:14], the “KS Cell Proliferation, % of Control” value with KS Y-1 cells (10 μg/ml) is recorded as 89.3 % of Control; with KS Y-1 cells (100 μg/mL) it was 60.7 % of Control; with KS Y-1 cells (500 μg/mL), 28.6 % of Control.
In the case of QDCIQMV [SEQ ID NO:31, QDCIQMV], the midpoint of inhibition with KS Y-1 cells, the IC50, lay at 16.6 µM. Besides, in the test with KS Y-1 cells (setting [2]), the “Cell Proliferation Activity (% of control), KSY-1” value is reported as 74 % of control. Further, the “Cell Proliferation Activity (% of control), T1” value with T1 cells was 80 % of control; in the test with T1 cells (first of two T1 value columns), 87 % of control.
On to QMMMHMQPKEICALVG [SEQ ID NO:18], for which the “KS Cell Proliferation, % of Control” value in the test on KS Y-1 cells (10 μg/ml) is reported as 88.9 % of Control; in the test on KS Y-1 cells (100 μg/mL) it was 86.4 % of Control; with KS Y-1 cells (500 μg/mL), 58.0 % of Control.
In the test on KS Y-1 cells, “QMVTDIQTQVRTNSTF [SEQ ID NO:43, QMVTDIQTQVRTNSTF]” had a concentration for half-maximal inhibition (IC50) of 14 µM.
Take QPKDNGDVCQDCIQV [SEQ ID NO:13]: the “KS Cell Proliferation, % of Control” value with KS Y-1 cells (1 μg/mL) is on record as 51.8 % of Control; in the test on KS Y-1 cells (10 μg/ml), 17.9 % of Control; in the test with KS Y-1 cells (50 μg/mL) it was 1.8 % of Control; in the test with KS Y-1 cells (100 μg/mL) it was 1.8 % of Control; with KS Y-1 cells (500 μg/mL), 1.8 % of Control.
As to STFVQALVEHVKEECDR [SEQ ID NO:15], the “KS Cell Proliferation, % of Control” value with KS Y-1 cells (10 μg/ml) is recorded as 101.8 % of Control; with KS Y-1 cells (100 μg/mL), 60.7 % of Control; in the test with KS Y-1 cells (500 μg/mL), 28.6 % of Control.
For the molecule VCQDCIQMV [SEQ ID NO:29], the “Cell Proliferation Activity (% of control), KSY-1” value in the test on KS Y-1 cells (setting [2]) is given as 65 % of control; with KS Y-1 cells (setting [3]), 33 % of control. For the same molecule, the “Cell Proliferation Activity (% of control), T1” value is 86 % of control in the test with T1 cells and 95 % of control with T1 cells (first of two T1 value columns).
In the test with KS Y-1 cells, “YISQYSEIAIQMMMHMQP [SEQ ID NO:17, YISQYSEIAIQMMMHMQP]” came in with an IC50 of 20 µM. The “KS Cell Proliferation, % of Control” value was 96.3 % of Control in the test on KS Y-1 cells (10 μg/ml), 86.4 % of Control in the test with KS Y-1 cells (100 μg/mL) and 46.9 % of Control in the test with KS Y-1 cells (500 μg/mL).

B1: Saposin A: sphingolipid-binding glycoprotein derived from Prosaposin; recombinant (protein, UniProt P07602 60-142, looked up)
Saposin-A: SLPCDICKDVVTAAGDMLKDNATEEEILVYLEKTCDWLPKPNMSASCKEIVDSYLPVILDIIKGEMSRPGEVCSALNLCESLQ
modifications: Saposin-A
notes: recombinant
In the case of B1, the “activity against KS cell lines” value with KS cell lines is reported as “no activity”. In addition, the “activity against endothelial cells” value in test [1] was “no activity”.

B2: Saposin C: sphingolipid-binding glycoprotein derived from Prosaposin; recombinant (protein, UniProt P07602 311-390, looked up)
Saposin-C: SDVYCEVCEFLVKEVTKLIDNNKTEKEILDAFDKMCSKLPKSLSEECQEVVDTYGSSILSILLEEVSPELVCSMLHLCSG
modifications: Saposin-C
notes: recombinant
B2: in the test on KS cell lines, the “activity against KS cell lines” value is recorded as “no activity”. Moreover, the “activity against endothelial cells” value in test [1] is reported as “no activity”.

B3: Saposin D: sphingolipid-binding glycoprotein derived from Prosaposin; recombinant (protein, UniProt P07602 405-486, looked up)
Saposin-D: DGGFCEVCKKLVGYLDRNLEKNSTKQEILAALEKGCSFLPDPYQKQCDQFVAEYEPVLIEILVEVMDPSFVCLKIGACPSAH
modifications: Saposin-D
notes: recombinant
For B3, in the test with KS cell lines, the “activity against KS cell lines” value is “no activity”. Also, the “activity against endothelial cells” value in test [1] is “no activity”.
